Assay results: patent US20250340543A1, “GPR84 ANTAGONISTS AND USES THEREOF” (Liminal BioSciences Limited, priority 2021, published 2025)
pEC50, pIC50: −log10 of the molar value.

What was measured:
[1] = system: mouse dextran sodium sulfate-induced chronic inflammatory bowel disease model; details: once-daily doses of 3 and 10 mg/kg, mouse DSS-induced chronic IBD model; cited from earlier work
[2] = system: neutrophils; assay: Neutrophil migration assay (embelin as chemotactic agent, transwell, ATPlite readout); assay type: cell-based; details: for Human Neutrophil migration inhibition - fold potency to Control Compound: IC50 normalized to GPR84 antagonist Control Compound; for pIC50: Neutrophil, human neutrophils, embelin as chemotactic agent, read-out: Human Neutrophil migration inhibition IC50
Description: Neutrophil migration assay. After isolation, neutrophils were resuspended in chemotaxis buffer (DMEM supplemented with 10 mM HEPES) at a concentration of 8.9×10^6 cells/ml. In a 96-well plate, 20 μl of compound solution in chemotaxis buffer is added to 180 μl of cell suspension. After incubation at 37° C. for 30 minutes, 75 μL of cell suspension is transferred in the upper chamber of a 5 μm pore size Corning HTS transwell. 235 μL of chemotaxis buffer containing the chemotactic agent (embelin) is added to the lower chamber of the transwell. After a 60-minute incubation time at 37° C. in 5% CO2, the upper chamber of the transwell is removed and the plate is centrifuged at 1500 rpm for 6 minutes. Supernatant is removed and cells resuspended in 100 ul of PBS. ATP content was assessed using ATPlite Luminescence Assay System® according to manufacturer instructions (Perkin Elmer, Buckinghamshire, UK). Briefly, 50 μL of ATPlite buffer and 50 μL of lysis solution is added to the lower chamber of the Transwells. After incubation at room temperature, in the dark with constant agitation for 5 minutes, 150 μL of cell lysate is transferred in a 96 wells white plate and incubated for 10 minutes in the dark. Luminescence is read on a TECAN plate reader, Infinite M1000 (Tecan, Morrisville, NC).
The compound numbers correspond to the compound numbers in Table 1. […] Normalization of the results takes the donor's variation into account.

[3] = target: T1, GPR84 (Homo sapiens (Human), UniProt Q9NQS5); assay: Gai biosensor BRET assay (GPR84-mediated activation of Gai, antagonist mode against agonist ZQ-16); assay type: cell-based; details: for pIC50: HEK293 cells, 200 nmol/L GPR84 agonist ZQ-16, read-out: hGPR84 IC50; for inhibition at 10 µM: compound tested at 10 μM (concentration code D); for inhibition at 2 µM: compound tested at 2 μM (concentration code A); for inhibition at 25 µM: compound tested at 25 μM (concentration code G)
How it was run: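 Transiently transfected HEK293 cells expressing GPR84, Gαi2-Rluc8, GFP10-Gγ2 and Gβ1, in Tyrode's buffer pH 7.5. Compounds pre-incubated 5 min at 37° C, then 200 nmol/L ZQ-16 for 5 min at room temperature; BRET² with coelenterazine 400A, ligand-promoted net BRET after background and vehicle subtraction.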
Target sequence in this assay (Q9NQS5 whole entry): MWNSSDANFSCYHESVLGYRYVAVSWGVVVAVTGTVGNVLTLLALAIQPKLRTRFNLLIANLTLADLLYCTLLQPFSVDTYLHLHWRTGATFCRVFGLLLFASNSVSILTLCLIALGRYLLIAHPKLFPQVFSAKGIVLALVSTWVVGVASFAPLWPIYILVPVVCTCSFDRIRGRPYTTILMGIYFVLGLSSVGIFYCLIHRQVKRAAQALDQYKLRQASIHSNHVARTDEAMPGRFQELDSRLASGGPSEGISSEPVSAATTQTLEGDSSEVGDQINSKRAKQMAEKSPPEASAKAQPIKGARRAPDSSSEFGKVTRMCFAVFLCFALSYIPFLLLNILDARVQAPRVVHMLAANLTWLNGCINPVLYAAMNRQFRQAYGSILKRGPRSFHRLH

[4] = target: T1, GPR84; details: literature (Wang et al. 2006); read-out: potency of GPR84 activation; cited from earlier work
Target sequence in this assay (Q9NQS5 whole entry, species assumed): as the sequence (Q9NQS5 whole entry) above

inhibition at 10 µM [3]	inhibition at 25 µM [3]	Compound	also measured
		O=c1nc(OC[C@@H]2COCCO2)cc2n1CCc1cc(C#CC3CC3)ccc1-2 [GLPG1205]	disease activity index score [1]: reduced; neutrophil infiltration [1]: reduced
> 75%		Cc1cc(OCc2ncccn2)cc(=O)n1[C@H](C)c1ccc(C#CC2CC2)cc1 [Compound I-223]	Human Neutrophil migration inhibition - fold potency to Control Compound [2]: B (IC50 of >0.5-≤1.0-fold relative to Control Compound); pIC50 [2]: ≥ 6.52; pIC50 [3]: > 5.30
		Cc1cc(OC[C@H]2COc3ccccc3O2)cc(=O)n1Cc1cccc(C#CC2CC2)c1 [Compound I-30]	Human Neutrophil migration inhibition - fold potency to Control Compound [2]: C (IC50≤0.5-fold relative to Control Compound); pIC50 [2]: 5.52 to 6.00; inhibition at 2 µM [3]: 25 to 50%
> 75%		Cc1cc(OCC2CCCOC2)cc(=O)n1[C@H](C)c1ccc(C#CC2CC2)cc1 (some centres unmarked) [Compound I-222]	pIC50 [2]: 5.52 to 6.00
		CCCCCCCCCCCC(=O)O [lauric acid]	pEC50 [4]: 4.96
	> 75%	Cc1cc(OCC2COCCO2)cc(=O)n1Cc1cccc(C#CC2CC2)c1 (centres unmarked) [Compound I-2]	Human Neutrophil migration inhibition - fold potency to Control Compound [2]: C (IC50≤0.5-fold relative to Control Compound); pIC50 [2]: < 5.52; pIC50 [3]: > 5.30
< 25%		Cc1cc(OCc2ncccn2)cc(=O)n1[C@H](C)c1ccc(C#Cc2ccccc2)cc1 [Compound I-329]	
25 to 50%		CC(c1ccc(C#CC2CC2)cn1)n1ccc(OC[C@@H]2COCCO2)cc1=O (some centres unmarked) [Compound I-240]	
	< 25%	COc1cc(OCC2COCCO2)nc(-c2ccc(OCC(F)(F)F)cc2)c1OC (centres unmarked) [Compound I-94]	
< 25%		Cc1cc(OCc2ncccn2)cc(=O)n1Cc1cccc(C#CC2CC2)c1 [Compound I-267]	
> 75%		Cc1cc(OCc2cscn2)cc(=O)n1[C@H](C)c1ccc(C#CC2CC2)cc1 [Compound I-294]	pIC50 [3]: > 5.30
	< 25%	COc1cc(NC(=O)C2COCCO2)cc(-c2ccc(C#CC3CC3)cc2)n1 (centres unmarked) [Compound I-98]	
25 to 50%		Cc1c(C#CC2CC2)cccc1Cn1c(C)cc(OC[C@H]2COCCO2)cc1=O [Compound I-49]	
		Clc1cc(OCC2COCCO2)cc(-c2ccc(OCc3ccccn3)cc2)n1 (centres unmarked) [Compound I-107]	inhibition at 12.5 µM ([3]; compound tested at 12.5 μM (concentration code E)): < 25%
< 25%		Cc1cc(OCc2ncccn2)cc(=O)n1C(C)c1ccc(Oc2ccccc2)cc1 (centres unmarked) [Compound I-307]	
		Cc1cc(OCc2ccncn2)cc(=O)n1[C@H](C)c1ccc(C#CC2CC2)cc1 [Compound I-258]	pIC50 [3]: > 5.30; inhibition at 2 µM [3]: > 75%
< 25%		Cc1cc(C#CC2CC2)ccc1Cn1c(C)nc(OCC2COCCO2)cc1=O (centres unmarked) [Compound I-113]	
	< 25%	Cc1cc(C#CC2CC2)ccc1-c1cc(OCC2COCCO2)n(C)c(=O)n1 (centres unmarked) [Compound I-126]	
	< 25%	COc1cc(OCC2COCCO2)cc(-c2cc(C#CCNc3ccccc3)ccc2C)n1 (centres unmarked) [Compound I-79]	

inhibition at 10 µM [3]	inhibition at 25 µM [3]	Compound	also measured
< 25%		Cc1cc(C#CC2CC2)ccc1C(C)n1ccc(OC[C@@H]2COCCO2)cc1=O (some centres unmarked) [Compound I-239]	
	< 25%	Clc1cc(OCC2COCCO2)cc(-c2ccc(C#CCNc3ccccc3)cc2)n1 (centres unmarked) [Compound I-109]	
		COc1ccc2c(-c3ccc(C#CC4CC4)cc3)nnn2c1 [Compound I-215]	inhibition at 5 µM ([3]; compound tested at 5 μM (concentration code C)): < 25%
> 75%		COc1cccnc1COc1cc(C)n([C@H](C)c2ccc(C#CC3CC3)cc2)c(=O)c1 [Compound I-318]	pIC50 [3]: > 5.30
< 25%		Cc1cc(OCc2ncccn2)cc(=O)n1[C@H](C)c1ccc(C#CCNCc2ccccc2)cc1 [Compound I-263]	
< 25%		Cc1cc(OC[C@@H]2COCCO2)cc(=O)n1[C@@H](C)c1ccc(C#CC2CC2)cc1 (stereo in doubt) [Compound I-89]	
	25 to 50%	Cc1cc(OCC2COCCO2)nc(=O)n1Cc1ccc(C#CC2CC2)cc1 (centres unmarked) [Compound I-38]	
	< 25%	COc1nc(OCC2COCCO2)cc(-c2ccc(C#CC3CC3)cc2C)n1 (centres unmarked) [Compound I-103]	
	< 25%	Cc1nc(OCc2ccc(C#CC3CC3)cc2)cc(OCC2COCCO2)n1 (centres unmarked) [Compound I-92]	
	25 to 50%	Cc1ccc(-c2ccc(-c3nc(OCC4COCCO4)cc(=O)n3C)cc2)cn1 (centres unmarked) [Compound I-47]	
25 to 50%		Cc1cc(OCc2ncccn2)cc(=O)n1[C@H](C)c1ccc(C#CC2CC2)nc1 [Compound I-288]	
< 25%		Cc1cc(OCC2COCCO2)cc(=O)n1[C@H](C)c1ccc(C#CCNS(=O)(=O)C2CC2)cc1 (some centres unmarked) [Compound I-149]	
	< 25%	CSc1nc(OCC2COCCO2)cc(-c2cnc(OCC(F)(F)F)cc2C)n1 (centres unmarked) [Compound I-9]	
	50 to 75%	COc1cc(OCC2CCCCO2)cc(-c2ccc(-c3ccc(C)nc3)cc2C)n1 (centres unmarked) [Compound I-19]	
50 to 75%		Cc1cc(OCc2ncccc2F)cc(=O)n1C(C)c1ccc(C#CC2CC2)nc1 (centres unmarked) [Compound I-327]	
	< 25%	COc1cc(OCC2COCCO2)cc(-c2cc(-c3ccc(C)nc3)ccc2C)n1 (centres unmarked) [Compound I-95]	
> 75%		Cc1cc(OC[C@@H]2CCCCO2)cc(=O)n1[C@H](C)c1ccc(C#CC2CC2)cc1 (stereo in doubt) [Compound I-144]	
		Cc1cc(OCc2cccnn2)cc(=O)n1C(C)c1ccc(C#CC2CC2)c(F)c1 (centres unmarked) [Compound I-363]	pIC50 [3]: > 5.30; inhibition at 2 µM [3]: > 75%
50 to 75%		Cc1cc(OCC2COCCO2)cc(=O)n1CCc1ccc(C#CC2CC2)cc1 (centres unmarked) [Compound I-234]	

inhibition at 10 µM [3]	inhibition at 25 µM [3]	Compound	also measured
25 to 50%		CC(c1cc(C#CC2CC2)ccn1)n1ccc(OCc2ncccn2)cc1=O (centres unmarked) [Compound I-250]	
	< 25%	Cc1ccc(-c2ccc(Cc3cccc(OCC4COCCO4)c3)cc2)cn1 (centres unmarked) [Compound I-176]	
< 25%		Cc1cc(OC[C@@H]2COCCO2)cc(=O)n1C(C)c1ccc(C#CC2CC2)cn1 (some centres unmarked) [Compound I-246]	
	< 25%	O=c1nc(OCC2COCCO2)cc(-c2ccc(OCC(F)(F)F)cn2)[nH]1 (centres unmarked) [Compound I-102]	
> 75%		Cc1cc(OCc2ncccn2)cc(=O)n1C(C)c1cc(F)c(C#CC2CC2)c(F)c1 (centres unmarked) [Compound I-362]	
		CCn1ccnc1COc1cc(C)n([C@H](C)c2ccc(C#CC3CC3)cc2)c(=O)c1 [Compound I-356]	pIC50 [3]: > 5.30; inhibition at 2 µM [3]: > 75%
< 25%		Cc1cc(OCc2ncccn2)cc(=O)n1[C@H](C)c1ccc(C#CCNC(=O)OC(C)C)cc1 [Compound I-269]	
> 75%		Cc1cc(OCc2ncccn2)cc(=O)n1[C@H](C)c1ccc(C#CC2CC2)c(F)c1 [Compound I-325]	pIC50 [3]: > 5.30
> 75%		Cc1cc(OCc2ncccn2)cc(=O)n1CCc1ccc(C#CC2CC2)cc1 [Compound I-238]	
> 75%		Cc1cc(OCc2ncccn2)cc(=O)n1C(C)c1ccc(C#CC2CC2)c(F)c1 (centres unmarked) [Compound I-273]	pIC50 [3]: > 5.30
< 25%		Cc1cc(OCc2ccccn2)ccc1-c1cc(OCC2COCCO2)[nH]c(=O)c1 (centres unmarked) [Compound I-120]	
< 25%		CC(c1ccc(NC(=O)C2CC2)cc1)n1ccc(OCc2ncccn2)cc1=O (centres unmarked) [Compound I-255]	
> 75%		Cc1cnc(COc2cc(C)n([C@H](C)c3ccc(C#CC4CC4)cc3)c(=O)c2)nc1 [Compound I-279]	
< 25%		O=c1cc(OCC2COCCO2)nc(-c2ccc(C#CC3CC3)cc2)[nH]1 (centres unmarked) [Compound I-119]	
	< 25%	Cc1cc(C#CC2CC2)ccc1-c1cc(OCC2COCCO2)cc(Cl)n1 (centres unmarked) [Compound I-108]	
> 75%		Cc1cc(OCc2nccn2C(C)C)cc(=O)n1[C@H](C)c1ccc(C#CC2CC2)cc1 [Compound I-348]	
	< 25%	FC(F)(F)COc1ccc(-c2c(OCC3COCCO3)ncc3c2OCCO3)cc1 (centres unmarked) [Compound I-159]	
25 to 50%		Cc1cc(OCC(F)(F)F)ccc1-c1cncc(OC[C@H]2COCCO2)c1 [Compound I-32]	
	< 25%	O=c1cc(OCC2COCCO2)cc(-n2ccc(OCC(F)(F)F)cc2=O)[nH]1 (centres unmarked) [Compound I-5]	
